From patent US20170114025A1, “METHODS FOR INHIBITING NECROPTOSIS” (Catalyst Therapeutics Pty Ltd, priority 2014, published 2017)
Like-named read-outs stand apart in the source and are kept apart here.

What was measured:
wild type U937 cells = test: Cell death assay, TSQ-induced necroptosis in U937 cells (PI, flow cytometry); type: cell-based, human; details: Homo sapiens, U-937; Table 1; U937 cells, TSQ-induced necroptosis; read-out: Inhibition of necroptosis (IC50)
From the text: Mouse dermal fibroblasts (MDFs) were isolated from three MlkI^−/− mice and three congenic wild type mice and then immortalized by SV40 large T antigen to generate three biologically independent cell lines, as described in Murphy J M, et al. (2013), Immunity 39(3):443-453. Immortalized MDFs were similarly prepared from three Ripk3^−/− mice and congenic wild type mice. MDFs and HEK293T were maintained in Dulbecco's modified Eagle's medium (DMEM) supplemented with 8-10% v/v fetal calf serum (FCS), and 5 μg/mL puromycin for lines stably transduced with inducible expression constructs for MLKL. U937 cells were cultured in RPMI1640 supplemented with 8% v/v FCS. Cell death assays were carried out in 24 well plates, seeding 1×10^5 cells per well. Cells attached over 4 h in the presence of 10 ng/mL doxycycline or 20 ng/mL were then treated with assorted combinations of Necrostatin (50 μM) and Q-VD-OPh (5 μM) 30 min prior to addition of TNF (100 ng/mL) and Smac mimetic (500 nM). After 24 h for MDF cells or 48 h for U937 cells, cells were harvested and PI positive cells (1 μg/mL) quantified using a BD FACSCalibur flow cytometer.

[1] = test system: U937 human histiocytic leukemia cell line; test: Screening for inhibition of TSQ induced necroptosis, 96 well plate format; type: cell-based; details: U-937, U937, TSQ, 48 hours
Method: Screening Compounds for Inhibition of TSQ Induced Necroptosis, 96 Well Plate Format.
U937 human histiocytic leukemia cell line.
35,000 per well in 120 μL of media, counted and plated immediately prior to addition of inhibitor and death stimuli. Final well volume of 150 μL after addition of compounds and death stimuli
HTRPMI (WEHI Media kitchen, contains L-Glutamine and penicillin, streptomycin)—supplemented with 7.4% v/v FCS (Gibco, Precision Plus. Lot #1221437)
48 hours following addition of compounds and death stimuli
DMSO Final Concentration (% v/v): 0.2%
Compounds that are in the Death Stimulation Cocktail and their Final Concentrations: • hTNF-Fc (100 ng/ml)—produced by Silke lab, WEHI • Compound A (500 nM)—Smac mimetic, Tetralogic • Q-VD-OPh (10 μM)—MP Biomedicals
Analysis: • Cells treated with PI staining (1 μg/ml) and analysed by flow cytometry
TNF; S: Smac mimetic; Q: Q-VD-OPh): TSQ treatment ensures that cells specifically undergo necroptotic cell death. TNF activates the TNF receptor, Smac mimetic direct the signal away from proinflammatory signaling and toward the RIP1/RIP3-mediated cell death pathways, and Q-VD-OPh ensures that the apoptotic response is blocked leaving only the programmed necrosis response. The compounds' activity (solution in DMSO) tested in this TSQ-induced assay is evaluated by measuring their ability to block cell death as measured by flow cytometry after PI staining.

U937 cells = test: Counter screen: cell viability without TSQ cocktail (off target effect); type: cell-based; details: U937 without TSQ cocktail
Method: In parallel, all compounds are tested for their ability to affect cell viability. The same U937 cells are treated with compound in DMSO without the TSQ cocktail. This counter screen enables evaluation of off-target effects. In this case gain, cell viability is measured by flow cytometry after PI staining.

[2] = target: T1, human MLKL ATP-binding site (Homo sapiens, UniProt Q8NB16); test: Complex between compound and human MLKL (FIG. 5); details: FIG. 5 (A) and (B)
T1 sequence (Q8NB16 1-471): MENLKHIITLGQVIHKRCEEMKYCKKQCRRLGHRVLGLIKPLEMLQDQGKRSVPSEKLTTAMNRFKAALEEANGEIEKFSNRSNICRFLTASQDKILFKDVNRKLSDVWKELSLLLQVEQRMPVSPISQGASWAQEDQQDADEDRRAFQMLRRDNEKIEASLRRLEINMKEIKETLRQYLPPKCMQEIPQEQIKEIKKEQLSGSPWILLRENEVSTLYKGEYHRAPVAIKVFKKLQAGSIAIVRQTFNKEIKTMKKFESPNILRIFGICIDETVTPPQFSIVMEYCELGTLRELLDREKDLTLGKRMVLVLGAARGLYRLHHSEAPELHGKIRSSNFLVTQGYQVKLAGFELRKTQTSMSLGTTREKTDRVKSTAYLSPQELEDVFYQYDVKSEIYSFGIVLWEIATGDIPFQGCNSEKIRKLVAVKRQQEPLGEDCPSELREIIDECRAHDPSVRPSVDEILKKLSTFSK

Compound: CN(c1ccc(NC(=O)Nc2cc(C(F)(F)F)ccc2F)cc1)c1ccnc(Nc2cccc(S(N)(=O)=O)c2)n1 [Compound 3]
- IC50 (wild type U937 cells): 1 to 5 nM
- IC50 ([1]; average IC50, unit not given in Table 2 (titrations in nM), read-out: Cell based assay Average): 15.3 nM
- IC50 ([1]; unit not given in Table 2 (titrations given in nM), read-out: Cell based assay IC50): 3.31 nM
- Off target effect (% cell death) at 500 nM (U937 cells; compound at 500 nM): 40%
- Off target effect (% cell death) at 1 uM (U937 cells; compound at 1 uM): 72%
- Off target effect (% cell death) at 5 uM (U937 cells; compound at 5 uM): 86%
- Off target effect (% cell death) at 10 uM (U937 cells; compound at 10 uM): 84%
- binding site in complex with human MLKL [2]: binds within the ATP-binding site of human MLKL
